Experimental data: PubChem BioAssay AID743470 (Broad Institute, 2014)
Results filed as inconclusive are left out. Calls of active or inactive are those of the source.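 The calls were made as follows: active = fitted curve falls past -35% at a concentration up to twice the top valid dose; inconclusive = no clear call, values can overlap the other calls; inactive = signal rising instead of falling, plus the rest.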

Tested on: HEK293T viability, CellTiter-Glo ATP luminescence, 72 h
Assay: HEK293 cell cytotoxicity, dose response, cytotoxicity control, luminescence, dry powder, set 15 (AID 743470)
Settings: not given

Q: For `CC(C)N1c2ccccc2C(c2ccc(F)cc2)C1/C=C/C(O)CC(O)CC(=O)O` (stereo unspecified), which AC35 is on record?
A: 4.91 µM

Q: With `CCc1c2c(nc3ccc(O)cc13)-c1cc3c(c(=O)n1C2)COC(=O)C3(O)CC` (stereo unspecified) as the compound, how does the AC35 read?
A: 0.0239 µM

Q: Which AC35 does the source give for `COc1ccc(C2=Nn3c(nnc3-c3ccccc3Cl)SC2)cc1OC` here?
A: 6.79 µM

Q: For `COc1ccc(-c2cc(NC=O)c3ncc(-c4ccc(OC)c(OC)c4)n3c2)cc1`, which AC35 is on record?
A: 5.61 µM

Q: With `CC(C)(O)CCc1ccc(O)c2c(=O)c3c(O)c4c(cc3oc12)O[C@H]1OC=C[C@@]41O` as the compound, how does the AC35 read?
A: 0.0808 µM

Q: For `COc1ccc(S(=O)(=O)N(C(C)=O)c2ccc(OC(C)=O)c3ccccc23)cc1[N+](=O)[O-]`, which AC35 is on record?
A: 21.5 µM

Q: For `CC[C@@]1(O)C(=O)OCc2c1cc1n(c2=O)Cc2cc3c(CN(C)C)c(O)ccc3nc2-1`, which AC35 is on record?
A: 0.181 µM

Q: Which AC35 does the source give for `N#CC1=C(N)Oc2cc(N)ccc2C1c1ccccc1` (stereo unspecified) here?
A: 17.4 µM

Q: Which AC35 does the source give for `N#CC1=C(N)Oc2cc(N)ccc2C1c1cccc(F)c1` (stereo unspecified) here?
A: 4.67 µM

Q: Which AC35 does the source give for `Nc1ncnc2c1c(-c1cccc(OCc3ccccc3)c1)cn2C1CC(CN2CCCC2)C1` (stereo unspecified) here?
A: 9.93 µM

Q: For `COc1ccc(S(=O)(=O)N2CC[C@@H]3[C@@H](CO)Nc4ccc(-c5ccc(C#N)cc5)cc4[C@@H]32)cc1`, which AC35 is on record?
A: 6.16 µM

Q: For `C=C([C@@H](O)[C@@H](C)O)[C@@H](OC)[C@]1(C)Cc2cc3cc(O[C@H]4CC(OC5CC(O)C(O)C(C)O5)C(O)C(C)O4)cc(O)c3c(O)c2C(=O)[C@H]1OC1CC(OC2CC(OC3CC(C)(O)C(O)C(C)O3)C(O)C(C)O2)C(O)C(C)O1` (stereo partly specified), which AC35 is on record?
A: 0.188 µM

Q: Which AC35 does the source give for `Clc1ccccc1-c1nnc2n1N=C(c1ccc3c(c1)OCO3)CS2` here?
A: 3.54 µM

Q: Which AC35 does the source give for `Nc1ccn([C@@H]2O[C@H](CO)[C@H](O)C2O)c(=O)n1` (stereo partly specified) here?
A: 3.18 µM

Q: For `COc1cc(C2C(C#N)=C(N)Oc3cc(N(C)C)ccc32)cc2c1OCO2` (stereo unspecified), which AC35 is on record?
A: 0.184 µM

Q: For `Cc1cc(Nc2cc(N3CCN(C)CC3)nc(Sc3ccc(NC(=O)C4CC4)cc3)n2)n[nH]1`, which AC35 is on record?
A: 3.09 µM

Q: With `CN1CCN(CCOc2cc(OC3CCOCC3)c3c(Nc4c(Cl)ccc5c4OCO5)ncnc3c2)CC1` as the compound, how does the AC35 read?
A: 23.8 µM

Q: With `CC[C@]1(O)CC2CN(CCc3c([nH]c4ccccc34)[C@@](C(=O)OC)(c3cc4c(cc3OC)N(C=O)[C@H]3[C@@](O)(C(=O)OC)[C@H](OC(C)=O)[C@]5(CC)C=CCN6CC[C@]43[C@@H]65)C2)C1` (stereo partly specified) as the compound, how does the AC35 read?
A: 0.651 µM

Q: For `COc1ccc(C2=Nn3c(nnc3-c3ccccc3OC)SC2)cc1OC`, which AC35 is on record?
A: 0.377 µM

Q: Which AC35 does the source give for `CC1(C)CC(c2nc(-c3ccc4ccc(-c5ccccc5)nc4c3)c3c(N)nccn23)C1` here?
A: 4.66 µM

Q: For `CN(C)c1ccc2c(c1)OC(N)=C(C#N)C2c1cccc(F)c1` (stereo unspecified), which AC35 is on record?
A: 0.586 µM

Q: For `CCOC(=O)CCNc1cc(N2CCc3ccccc3CC2)nc(-c2ccccn2)n1`, which AC35 is on record?
A: 9.37 µM

Q: With `Cc1nc(Nc2ncc(C(=O)Nc3c(C)cccc3Cl)s2)cc(N2CCN(CCO)CC2)n1` as the compound, how does the AC35 read?
A: 38.2 µM

Tested on: not listed separately
Assay: as above
Settings: HEK293T viability, CellTiter-Glo ATP luminescence, 72 h; at 1.35 µM (top of the series)

Q: For `COc1cc([C@@H]2c3cc4c(cc3[C@@H](O[C@@H]3O[C@@H]5CO[C@@H](C)O[C@H]5[C@H](O)[C@H]3O)[C@H]3COC(=O)[C@H]23)OCO4)cc(OC)c1O`, which activity change, negative = cytotoxicity is on record?
A: -29% (inactive)

Same assay, conditions: HEK293T viability, CellTiter-Glo ATP luminescence, 72 h; at 1.6 µM (top of the series)

Q: With `CCN(CCO)CCCOc1ccc2c(Nc3cc(CC(=O)Nc4cccc(F)c4)[nH]n3)ncnc2c1` as the compound, how does the activity change, negative = cytotoxicity read?
A: 43.7% (inactive)

Same assay, conditions: HEK293T viability, CellTiter-Glo ATP luminescence, 72 h; at 6 µM (top of the series)

Q: For `CCC(C)(C)C(=O)O[C@H]1C[C@@H](C)C=C2C=C[C@H](C)[C@H](CC[C@@H]3C[C@@H](O)CC(=O)O3)[C@H]21`, which activity change, negative = cytotoxicity is on record?
A: 11.4% (inactive)

Q: For `Clc1ccc(-c2cnc3ccc(-c4ccccc4)cn23)cc1`, which activity change, negative = cytotoxicity is on record?
A: 7.25% (inactive)

Same assay, conditions: HEK293T viability, CellTiter-Glo ATP luminescence, 72 h; at 8 µM (top of the series)

Q: Which activity change, negative = cytotoxicity does the source give for `COc1ccc(S(=O)(=O)N2CC[C@@H]3[C@H](CO)Nc4ccc(-c5ccc(C#N)cc5)cc4[C@@H]32)cc1` here?
A: -17.6% (inactive)

Q: For `COc1ccc(S(=O)(=O)N2CC[C@@H]3[C@@H](CO)N(C)c4ccc(-c5ccc(F)cc5)cc4[C@@H]32)cc1`, which activity change, negative = cytotoxicity is on record?
A: 0.125% (inactive)

Q: Which activity change, negative = cytotoxicity does the source give for `COc1ccc(C2=Nn3c(nnc3-c3ccccc3F)SC2)cc1OC` here?
A: -35.4% (inactive)

Same assay, conditions: HEK293T viability, CellTiter-Glo ATP luminescence, 72 h; at 12 µM (top of the series)

Q: Which activity change, negative = cytotoxicity does the source give for `COc1ccc(C(=O)CC2(O)C(=O)Nc3c(Cl)ccc(Cl)c32)cc1` (stereo unspecified) here?
A: -19.6% (inactive)

Q: For `COc1ccc(NC(=O)Nc2ccc3c(c2)C(=O)N([C@@H](C)CO)C[C@H](C)[C@H](CN(C)Cc2ccc4c(c2)OCO4)O3)cc1`, which activity change, negative = cytotoxicity is on record?
A: 20.2% (inactive)

Q: With `COc1ccc(OC)c(-c2nnc3n2N=C(c2ccc(OC)c(OC)c2)CS3)c1` as the compound, how does the activity change, negative = cytotoxicity read?
A: -29.9% (inactive)

Same assay, conditions: HEK293T viability, CellTiter-Glo ATP luminescence, 72 h; at 26 µM (top of the series)

Q: Which activity change, negative = cytotoxicity does the source give for `CCCCc1ccc2nc(NC(=O)OC)[nH]c2c1` here?
A: -29.4% (inactive)

Q: Which activity change, negative = cytotoxicity does the source give for `COc1ccc(CNc2nc(N3CCC[C@H]3CO)ncc2C(=O)NCc2ncccn2)cc1Cl` here?
A: -1.87% (inactive)

Q: Which activity change, negative = cytotoxicity does the source give for `N#CC1=C(N)Oc2cc(N)ccc2C1c1ccc2ccccc2c1` (stereo unspecified) here?
A: -9.63% (inactive)
